# Experiments:
# [1] = tested on: collagen 1A in CCD8-Lu cells; test: Comparison of anti-fibrotic activity by immunocytochemistry staining (Experimental Example 4.3); assay type: cell-based, human; conditions: 2.5 μM and 5 μM; 6 hours after 5 ng/ml TGF-β; fluorescence intensity
# Protocol: A cell-based analysis experiment was performed to analyze the anti-fibrotic activity of pheophorbide a in comparison with nintedanib and pirfenidone, which were previously approved as a therapeutic agent for pulmonary fibrosis, using immunocytochemistry staining method. CCD8-Lu cells, which are human lung-derived fibroblasts, were cultured in the DMEM medium containing 10% FBS. About 2×10^4 cells were then inoculated into a 24 well plate and cultured for 24 hours, and subjected to the deficient condition in the DMEM medium from which FBS was removed for about 24 hours. After 24 hours, following the treatment with TGF-β at a concentration of 5 ng/ml, fibrosis of cells was induced for 6 hours. After 6 hours, the cells were treated with 2.5 μM or 5 μM of pheophorbide a, 1 μM of nintedanib, or 1 mM of pirfenidone. Immunohistochemistry analysis for each sample was performed as follows. First, the sample was washed twice with a PBS buffer, and then 4% formaldehyde was added to fix for 1 hour, and anti-collagen 1A was used as a primary antibody and Alexa Fluor 488 was used as a secondary antibody. The nuclei were stained using DAPI (4,6-diamidino-2-phenylindole) and the difference in the intensity of fluorescence was analyzed using a fluorescence microscope.
# [2] = tested on: α-SMA, CTGF and NOX4 genes in CCD8-Lu cells; test: Comparison of anti-fibrotic activity by quantitative real-time PCR (Experimental Example 4.1); assay type: cell-based, human; conditions: 2.5 μM and 5 μM; 6 hours after 5 ng/ml TGF-β, 18 hours; qRT-PCR
# Protocol: A cell-based analysis experiment was performed to analyze the anti-fibrotic activity of pheophorbide a obtained in Preparation Example 2 in comparison with nintedanib and pirfenidone, which were previously approved as a therapeutic agent for pulmonary fibrosis, using quantitative real-time polymerase chain reaction.
# CCD8-Lu cells, which are human lung-derived fibroblasts, were cultured in the DMEM medium containing 10% FBS. About 2×10^5 cells were then inoculated into a 6 well plate, cultured for 24 hours, and subjected to the deficient condition in the DMEM medium from which FBS was removed for about 24 hours.
# 24 hours later, following the treatment with TGF-β at a concentration of 5 ng/ml, fibrosis of cells was induced for 6 hours. After 6 hours, the cells were treated with pheophorbide a obtained in Preparation Example 2 or the therapeutic agent for pulmonary fibrosis and further cultured for 18 hours. […]
# The supernatant was separated, added with the same volume of isopropyl alcohol and centrifuged at 12,000×g for 10 minutes. […] After drying, about 50 μl of RNAase-free purified distilled water was added thereto, and the quantity and purity of the obtained RNA was measured using a spectrophotometer. […]
# After the cDNA synthesis reaction was completed, the reverse transcriptase was inactivated by heating at 72° C. for 5 minutes, and then RNase H was added to remove the […] RNA and obtain the final cDNA. Whether the expression of the alpha-smooth muscle actin gene, which is a characteristic gene of myofibroblasts, the CCN2 (or CTGF) gene, which is a characteristic gene for fibrosis, fibronectin, which is a characteristics gene for fibrosis, and the NOX4 (NADPH oxidase 4) gene known as a major regulator of the amount of reactive oxygen species was changed was observed through quantitative real-time polymerase chain reaction. The GAPDH gene was quantified together to correct differences in expression.
substance,measurement,setting,value
pheophorbide a,increased expression of collagen 1A induced by TGF-β,[1],remarkably inhibited
same,"expression of the α-SMA, CTGF and NOX4 genes induced by TGF-β",[2],remarkably inhibited
